# Results from patent publication US20120010262A1, “CRYSTALLINE POLYMORPHIC FORMS OF AN ANTIDIABETIC COMPOUND” (priority 2009, published 2012).
# Assay: Solid-form stability of crystalline anhydrate Form II (conversion to Anhydrate III)
# Type: physicochemical
# Settings: converts to crystalline Anhydrate III when heated to 160° C. for 1 hour or in solutions of ethanol, isoamyl alcohol and isopropyl acetate
# Protocol: Anhydrate Form II is prepared from a solution of the crystalline hydrate form at a concentration of >100 mg/mL in acetonitrile. The solution is sonicated for approximately 5 minutes to induce crystallization. Anhydrate H is metastable. It converts to crystalline Anhydrate III when heated to 160° C. for 1 hour or in solutions of ethanol, isoamyl alcohol and isopropyl acetate. The X Ray Powder Diffraction peaks are shown below in Table 4.
smiles,measurement,value
"CCC[C@H](c1ccc(C(=O)NCCC(=O)O)cc1)[C@H](c1ccc(Cl)cc1)c1c[nH]c2c(F)cc(C)cc12 [Anhydrate H, N-(4-{(1S)-1-[(R)-(4-chlorophenyl)(7-fluoro-5-methyl-1H-indol-3-yl)methyl]butyl}benzoyl)-β-alanine]",physical stability of the crystalline form,metastable
